According to patent US10865203B2, “Ligands selective to alpha 6 subunit-containing GABAA receptors and their methods of use” (UWM Research Foundation, Inc., priority 2015, dated 2020):
In brackets after ≈: the same amount, converted by molar mass. Entries after “also recorded” stand apart in the source; their conditions may differ.

How the values were obtained:
mice, elevated plus maze = assay: Elevated plus maze (EPM) test; assay type: in vivo, mouse; settings: 3 mg/kg or 10 mg/kg i.p., 10 min before the tests
Procedure: The epm test was conducted in a plexiglas maze apparatus (San Diego Instruments, San Diego, Calif.), consisting of a central platform (5×5 cm) with four arms (30×5 cm); two open and two closed arms with 25 cm-high sidewalls. The maze is elevated 38.5 cm from the room's floor. The mouse was placed at the central platform of the maze facing one of open arms and its behaviors in the maze were video-recorded and analyzed every 5 min-test session by the ethovision video tracking system (noldus information technology, wageningen, netherlands). The time spent for each mouse in the open or closed arm or the central platform as well as the distances traveled in the open or closed arm were measured. The degree of anxiety was accessed by the ratio of the time spent or the distance traveled in two open arms in a 5 min-test session.

[1] = tested on: METH-impaired PPI in C57/B6 mice; assay: PPI test, methamphetamine-impaired prepulse inhibition; assay type: in vivo, mouse; settings: for rescue of METH-impaired PPI: mice, compound 10 mg/kg i.p. 15 min before METH 2 mg/kg i.p.
Procedure: All animal experiments conducted at NTU were approved by the Institutional Animal Care and Use Committee of College of Medicine, National Taiwan University. C57/B6 (8-10 weeks) mice were used for the PPI test and Wistar rats (8-9 weeks) were used in the migraine model. Animals were housed in an animal room with a 12-h light/12-h dark cycle and free access to food and water.
The PPI test was conducted with a PPI apparatus (SR-LAB, San Diego Instruments, San Diego, Calif.) consisting of a startle chamber equipped with various programming acoustic stimulations. After acclimation, the mouse was gently placed in the startle chamber for a 4 min acclimation period with a background noise of 65 dB, which continued throughout the whole PPI test session. One PPI test session consisted of 4 types of startle trials, including the trial with the startle pulse (115 dB) alone (PULSEALONE; 115 dB, 20 ms), two trials with the startle pulse paired with 71 and 77 dB prepulses, respectively (PREPULSE+PULSE; 71 dB+115 dB and 77 dB+115 dB), and the trial without stimulus (NOSTIM; background 65 dB only). A test session started and ended, respectively, with four NOSTIM trials and four PULSEALONE trials. In between, each of the four types of trials was presented 14 times randomly, that is, 56 trials were given in a test session. The intertrial interval was given randomly from 5 to 20 s. In the PREPULSE+PULSE trial, a 71 or 77 dB prepulse was given 120 ms before the 115 dBpulse. The magnitude of PPI (PPI %) was determined, after summarizing the startle responses in PULSEALONE and PREPULSE+PULSE trials, according to the equation (PULSEALON−PREPULSE+PULSE)/PULSEALONE×100%. The tested compound or vehicle was given to the animal for 15 min, followed by methamphetamine (2 mg/kg). The PPI test was conducted 10 min after injection of methamphetamine. Data were expressed as the mean±S.E.M. Statistical comparisons among groups were analyzed by ANOVA with Tukey post hoc test, and differences between groups were analyzed by Student's t-test. Two-way ANOVA with Bonferroni's post hoc test was used to analyze differences in the time courses of locomotor activity among groups. Differences were considered significant if P<0.05.
Methamphetamine and apomorphine were dissolved in normal saline for i.p. And s.c. Injections, respectively. Tested compounds and haloperidol, when given by i.p. Injection, were dissolved in a vehicle containing 20% dmso, 20% Cremophor® el (polyoxyethylene castor, sigma-aldrich) and 60% normal saline. Furosemide was dissolved (20 nmole/μL) in dimethylsulfoxide for intra-cerebellar microinjection the i.p. or s.c. Injection volume was 10 mL/kg.

HEPG2 cell line = assay: Cytotoxicity study, CellTiter-Glo cell viability; assay type: cell-based, Human; settings: HEPG2, 48 hours incubation
Procedure: Reagents and Instrumentation: Human liver hepatocellular carcinoma (HEPG2) cell line was purchased (ATCC) and cultured in 75 cm2 flasks (CellStar). Cells were grown in DMEM/High Glucose (Hyclone, #SH3024301) media to which non-essential amino acids (Hyclone, #SH30238.01), 10 mM HEPES (Hyclone, #SH302237.01), 5×106 units of penicillin and streptomycin (Hyclone, #SV30010), and 10% of heat inactivated fetal bovine serum (Gibco, #10082147) were added. Cells were harvested using 0.05% Trypsin (Hyclone, #SH3023601), which disrupts the cell monolayer and proteolytically cleaves the bonds between the cells and flask. The cell viability assay was evaluated using CellTiter-Glo™ Luminescent Cell Viability Assay Kit (Promega, Madison, Wis.) which contains luciferase and all its substrate except ATP. The controls for the cytotoxicity assay used were (E)-10-(bromotriphenylphosphoranyl)decyl 4-(4-(tert-butyl)phenyl)-4-oxobut-2-enoate (400 μM in DMSO, positive control) and DMSO (negative control). Cell culture was performed in a Baker Company Class II Biological Safety Cabinet. All luminescence readings were performed on a Tecan Infinite M1000 plate reader. Small volume transfers were performed on the Tecan Freedom EVO liquid handling system with a 100 nL pin tool transfer (V&P Scientific). Serial dilutions were done in 96-well polypropylene plates (Corning, #3365) and assays were conducted in 384-well white optical bottom plates.
Luminescence-Based VDR-Mediated Transcription Assay Protocol: After 48 hours of incubation at 37 °C with 5% CO2, the cells were harvested with 4 mL of 0.05% Trypsin, added to 10 mL of the assay buffer, DMEM/High Modified buffer without phenol red, and spun down for 3 minutes at 1000 rpm. The media was removed and cells were resuspended in the DMEM assay media. To each well, 40 μL of cells were added to yield a final concentration of 15,000 cells per well. The plates were then spun down for 2 minutes at 1000 rpm. After 2 hours, plated cells were treated with 100 nL×4 of small molecules and controls which were added using the pin tool. After 48 hours of incubation at 37 °C with 5% CO2, 20 μL of Cell Titer-Glo™ Luminescence Assay Kit (cytotoxicity assay) were added and luminescence was read. Controls were measured within each plate to determine the z′ factor (Equation 1) and to enable data normalization. Three independent experiments were performed in quadruplicate and data was analyzed using nonlinear regression with variable slope (GraphPrism, Equation 2). The luminescence intensity of control (untreated) cells was taken as 100% viability, and the relative cell viability compared to control was calculated. Data are presented as the means±SEM of a series of three experiments.

[2] = Solubility of compounds in DI water; assay type: physicochemical; settings: thermodynamic from solid; 2 mg in 2 mL DI water, sonicated at 60° C. for 2 hours, cooled to room temperature, filtered
Procedure: The solubility of the compounds was examined by sonicating 2 mg of each respective compound in 2 mL of DI water at 60° C. for 2 hours. Solutions were cooled to room temperature and then filtered using a syringe filter. The resultant solutions were injected into a mass spectrometer using a SIM method, calibrated to the respective retention times and mass units of each compound. Calibration curves using standard solutions (5 data points) of each compound dissolved in methanol were used to calculate the unknown aqueous concentrations of each compound.

SMILES	rescue of METH-impaired PPI [1]	toxicity at 400 μM (HEPG2 cell line)	solubility at 2 h [2]	further results
COc1ccc(-n2nc3c4ccc(OC)cc4[nH]cc-3c2=O)cc1 [Compound 6, 7-Methoxy-2-(4-methoxyphenyl)-2,5-dihydro-3H-pyrazolo[4,3-c]quinolin-3-one]	effectively rescued	–	–	anxiolytic activity (mice, elevated plus maze): neither displayed any significant; effect of intra-cerebellar furosemide on the rescue of PPI ([1]; furosemide 10 nmol intra-cerebellar microinjection): prevented; rescue of METH-impaired PPI ([1]; listed as C6): significantly rescued; rescue of METH-impaired PPI ([1]; listed as compound 6): effective; also recorded: significantly rescued
[2H]C([2H])([2H])Oc1ccc(-n2nc3c4ccc(OC)cc4[nH]cc-3c2=O)cc1 [DK-I-56-1, 7-Methoxy-2-(4-methoxy-d3-phenyl)-2,5-dihydro-3H-pyrazolo[4,3-c]quinolin-3-one]	effective	non-toxic	11.4 µg/mL (≈ 35.1 µM)	–
[2H]C([2H])([2H])Oc1ccc2c3nn(-c4ccc(OC)nc4)c(=O)c-3c[nH]c2c1 [DK-I-86-1, 7-Methoxy-d3-2-(6-methoxypyridin-3-yl)-2,5-dihydro-3H-pyrazolo[4,3-c]quinolin-3-one]	–	non-toxic	211 µg/mL (≈ 649 µM)	–
COc1cccc(-n2nc3c4cc(Cl)ccc4[nH]cc-3c2=O)c1 [LAU 159, 8-Chloro-2-(3-methoxyphenyl)-2,5-dihydro-3H-pyrazolo[4,3-c]quinolin-3-one]	effective; also recorded: comparable rescue effect as Compound 6	–	–	–
COc1ccc(-n2nc3c4ccc(Br)cc4[nH]cc-3c2=O)cc1 [LAU 463, 7-Bromo-2-(4-methoxyphenyl)-2,5-dihydro-3H-pyrazolo[4,3-c]quinolin-3-one]	effective; also recorded: comparable rescue effect as Compound 6	–	–	–
